Literature values as cited in US20250017946A1, “COMBINATION OF A BILE ACID AND A PHENYL BUTYRATE COMPOUND FOR THE TREATMENT OF NEURODEGENERATIVE DISEASES” (Amylyx Pharmaceuticals, Inc., priority 2021, published 2025).

Test system: patient populations
Settings: for less common or rare adverse events / most commonly reported adverse events: individual component, multiple patient populations

## O=C(O)CCCc1ccccc1 [PB, sodium phenylbutyrate]
  less common or rare adverse events: nausea, vomiting, stomach upset, stomach pain, gastritis, headache, and skin rash
  most commonly reported adverse events: Menstrual irregularities, decreased appetite, sweat-like body odor, and bad taste

## C[C@H](CCC(=O)NCCS(=O)(=O)O)[C@H]1CC[C@H]2[C@@H]3[C@@H](O)C[C@@H]4C[C@H](O)CC[C@]4(C)[C@H]3CC[C@]12C [TURSO, tauroursodeoxycholic acid]
  less common or rare adverse events: skin rash and vomiting
  most commonly reported adverse events: mild diarrhea, abdominal and pain
Use of TURSO
  most common adverse reactions reported (≥1%): abdominal discomfort, abdominal pain, diarrhea, nausea, pruritus, and rash
